# Measured values published in patent US11517570B2 (Kronos Bio, Inc., priority 2013, dated 2022).
# Test system: human hepatocytes
# Assay: Human Hepatocyte Stability Assay
# Format: in vitro ADME
# Conditions: comparison table with known compounds; head prints "(units)", L/hr/kg from the method
# Description: The human […] stability of the compounds as predicted hepatocyte clearance in L/hr/kg was assessed. Compounds to be tested were diluted to 200 μM (4 μl of 10 mM DMSO stock into 196 μl ACN:H2O (50:50). Propranolol was used as a positive control, and buffer only without hepatocytes as 0% control. These were further diluted 4 μl with 891 μl KHB buffer (InVitroGRO catalog number Z99074) to provide 2× dosing solution. To each well of 24 well plate, 250 μl of the 2× dosing solution was added to each well with 250 μl of hepatocytes cells (1×10^6 viable cells/ml per well) or KHB for control samples to achieve a final compound concentration of 1 μM during incubation. The final solvent concentration was 0.01% DMSO and 0.25% ACN. The culture plate was placed on a rocker and incubated at 37° C., 5% CO2. Samples were collected at time 0, 1, 3, and 6 hours. The loss of parent compound was determined using LC-MS methods against a standard curve.
row,Hheps CL [mL/min/kg],SMILES
1,4,"COc1ccc(Nc2nc(-c3cccc(N)c3)cn3ccnc23)cc1OC [6-(3-aminophenyl)-N-(3,4-dimethoxyphenyl)imidazo[1,2-a]pyrazin-8-amine, reference compound]"
2,13.3,"Cc1ncc(-c2cn3ccnc3c(Nc3ccc(N4CCOCC4)cc3)n2)cc1N [6-(5-amino-6-methylpyridin-3-yl)-N-(4-morpholinophenyl)imidazo[1,2-a]pyrazin-8-amine, reference compound]"
3,11.3,"Nc1cncc(-c2cn3ccnc3c(Nc3ccc(N4CCOCC4)cc3)n2)c1 [6-(5-aminopyridin-3-yl)-N-(4-morpholinophenyl)imidazo[1,2-a]pyrazin-8-amine, reference compound]"
4,15,"COc1ccc(Nc2nc(-c3ccc(N)nc3)cn3ccnc23)cc1OC [6-(6-aminopyridin-3-yl)-N-(3,4-dimethoxyphenyl)imidazo[1,2-a]pyrazin-8-amine, reference compound]"
5,2,"Cc1ncc(-c2cn3ccnc3c(Nc3ccc(N4CCN(C5COC5)CC4)cc3)n2)nc1N [Ex.-1, 6-(6-amino-5-methylpyrazin-2-yl)-N-(4-(4-(oxetan-3-yl)piperazin-1-yl)phenyl)imidazo[1,2-a]pyrazin-8-amine]"
6,0.917,"Nc1cncc(-c2cn3ccnc3c(Nc3ccc(N4CCN(C5COC5)CC4)cc3)n2)n1 [Ex.-2, 6-(6-aminopyrazin-2-yl)-N-(4-(4-(oxetan-3-yl)piperazin-1-yl)phenyl)imidazo[1,2-a]pyrazin-8-amine]"
7,1.5,"Nc1cncc(-c2cn3ccnc3c(Nc3ccc(N4CCO[C@@H](CO)C4)cc3)n2)n1 [Ex.-3, (R)-(4-(4-((6-(6-aminopyrazin-2-yl)imidazo[1,2-a]pyrazin-8-yl)amino)phenyl)morpholin-2-yl)methanol]"
8,1.3,"Cc1c(-c2cncc(N)n2)nc(Nc2ccc(N3CCN(C4COC4)CC3)cc2)c2nccn12 [Ex.-4, 6-(6-aminopyrazin-2-yl)-5-methyl-N-(4-(4-(oxetan-3-yl)piperazin-1-yl)phenyl)imidazo[1,2-a]pyrazin-8-amine]"
9,1.2,"Nc1cncc(-c2cn3ccnc3c(Nc3ccc(N4CCN(C5COC5)CC4)c(OCCO)c3)n2)n1 [Ex.-5, 2-(5-((6-(6-aminopyrazin-2-yl)imidazo[1,2-a]pyrazin-8-yl)amino)-2-(4-(oxetan-3-yl)piperazin-1-yl)phenoxy)ethanol]"
10,1.3,"Nc1cncc(-c2cn3ccnc3c(Nc3ccc(N4CCN(CC(CO)CO)CC4)cc3)n2)n1 [Ex.-6, 2-((4-(4-((6-(6-aminopyrazin-2-yl)imidazo[1,2-a]pyrazin-8-yl)amino)phenyl)piperazin-1-yl)methyl)propane-1,3-diol]"
11,0.83,"Cc1ncc(-c2cn3ccnc3c(Nc3ccc(N4CCN(C5COC5)CC4)c(OCCO)c3)n2)nc1N [Ex.-7, 2-(5-((6-(6-amino-5-methylpyrazin-2-yl)imidazo[1,2-a]pyrazin-8-yl)amino)-2-(4-(oxetan-3-yl)piperazin-1-yl)phenoxy)ethanol]"
